Data: patent US6610699B2, “Use of L-carnitine and its alkanoyl derivatives in the preparation of medicaments with anticancer activity” (Sigma-Tau Industrie Farmaceutiche Riunite S.p.A., priority 1998, dated 2003)
Marks after values point to notes of the source that are not given here.

Assay: Taxol-induced weight loss: body weight
Format: in vivo, rat
Conditions: for Body weight, BASAL: prior to starting treatment; for Body weight, % vs BASALE / Body weight, % vs SHAM: 5 weeks; for Body weight, 5 WEEKS: end of treatment
Excerpt: The animals used in the preceding experimental model were weighed prior to starting treatment (basal values) and at the end of treatment.

CC(=O)O[C@H]1C(=O)[C@@]2(C)[C@H]([C@H](OC(=O)c3ccccc3)[C@]3(O)C[C@H](OC(=O)[C@H](O)[C@@H](NC(=O)c4ccccc4)c4ccccc4)C(C)=C1C3(C)C)[C@]1(OC(C)=O)CO[C@@H]1C[C@@H]2O [Taxol, paclitaxel, reference compound]
Body weight, BASAL (taxol 8 mg/kg groups): 210 ± 9.1 | Body weight, % vs BASALE (taxol 8 mg/kg): +13** % | Body weight, % vs SHAM (taxol 8 mg/kg): +1% | Body weight, 5 WEEKS (taxol 8 mg/kg): 237 ± 20.8 | Body weight, BASAL (taxol 16 mg/kg groups): 212 ± 12.5 | Body weight, % vs BASALE (taxol 16 mg/kg): −15** % | Body weight, % vs SHAM (taxol 16 mg/kg): −23● % | Body weight, 5 WEEKS (taxol 16 mg/kg): 180 ± 16.0
